The supplement of paper PMC10307832

Assays:
Experiment in all cases: relative viability (nuclei count vs DMSO), 5 days (fraction); higher = more cells survive
Wnt-C59 + Linsitinib = compound: CC1=NC=CC(=C1)C2=CC=C(C=C2)CC(=O)NC3=CC=C(C=C3)C4=CN=CC=C4 [Wnt-C59] + C[C@]1(O)C[C@@H](c2nc(-c3ccc4ccc(-c5ccccc5)nc4c3)c3c(N)nccn32)C1 [Linsitinib] (partner 1 µM)
In short: (§1)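 Lung cancer cell lines in 1536-well plates got either a single drug or a fixed anchor-drug dose together with five library-drug doses (not always all listed) in √10 steps, by pin tool, on the day after seeding. Nuclei were counted after 5 days, and relative viability is the treated-to-vehicle ratio of nuclei counts. Values are medians of duplicate plates.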

Lapatinib + Dasatinib = compound: CS(=O)(=O)CCNCc1ccc(-c2ccc3ncnc(Nc4ccc(OCc5cccc(F)c5)c(Cl)c4)c3c2)o1 [Lapatinib] + Cc1nc(Nc2ncc(C(=O)Nc3c(C)cccc3Cl)s2)cc(N2CCN(CCO)CC2)n1 [Dasatinib] (partner 0.075 µM)
In short: as §1

Wnt-C59 + Vorinostat = compound: CC1=NC=CC(=C1)C2=CC=C(C=C2)CC(=O)NC3=CC=C(C=C3)C4=CN=CC=C4 [Wnt-C59] + O=C(CCCCCCC(=O)Nc1ccccc1)NO [Vorinostat] (partner 1 µM)
In short: as §1

Wnt-C59 + Palbociclib = compound: CC1=NC=CC(=C1)C2=CC=C(C=C2)CC(=O)NC3=CC=C(C=C3)C4=CN=CC=C4 [Wnt-C59] + CC(=O)c1c(C)c2cnc(Nc3ccc(N4CCNCC4)cn3)nc2n(C2CCCC2)c1=O [Palbociclib] (partner 0.5 µM)
In short: as §1

Cell Line | relative viability (Wnt-C59 + Linsitinib; first compound 0.001 µM) | relative viability (Wnt-C59 + Linsitinib; first compound 0.01 µM) | relative viability (Wnt-C59 + Linsitinib; first compound 0.03162 µM) | relative viability (Wnt-C59 + Linsitinib; first compound 0.1 µM) | relative viability (Lapatinib + Dasatinib; first compound 0.02 µM) | relative viability (Lapatinib + Dasatinib; first compound 0.06325 µM) | relative viability (Lapatinib + Dasatinib; first compound 0.2 µM) | relative viability (Lapatinib + Dasatinib; first compound 0.6325 µM) | relative viability (Lapatinib + Dasatinib; first compound 2 µM) | relative viability (Wnt-C59 + Vorinostat; first compound 0.001 µM) | relative viability (Wnt-C59 + Vorinostat; first compound 0.01 µM) | relative viability (Wnt-C59 + Vorinostat; first compound 0.03162 µM) | relative viability (Wnt-C59 + Vorinostat; first compound 0.1 µM) | relative viability (Wnt-C59 + Palbociclib; first compound 0.001 µM) | relative viability (Wnt-C59 + Palbociclib; first compound 0.01 µM) | relative viability (Wnt-C59 + Palbociclib; first compound 0.03162 µM) | relative viability (Wnt-C59 + Palbociclib; first compound 0.1 µM)
LOU-NH91 | 1.07 | 0.748 | 0.854 | 0.899 | 0.365 | 0.398 | 0.431 | 0.46 | 0.404 | 0.868 | 0.864 | 0.886 | 0.978 | 0.512 | 0.573 | 0.564 | 0.513
NCI-H2023 | 0.736 | 0.58 | 0.648 | 0.631 | 0.458 |  | 0.516 | 0.619 | 0.381 | 0.757 | 0.499 | 0.742 | 0.487 | 0.389 | 0.4 | 0.399 | 0.371
LC-2-ad | 0.864 | 0.811 | 0.944 | 0.776 |  | 0.382 | 0.687 | 0.514 | 0.465 | 0.699 | 0.714 | 0.742 | 0.688 | 0.484 | 0.509 | 0.536 | 0.505
NCI-H1355 | 0.875 | 0.779 | 0.881 | 0.673 |  | 0.465 | 0.705 | 0.694 | 0.319 | 0.639 | 0.529 | 0.601 | 0.596 | 0.408 | 0.375 | 0.408 | 0.375
NCI-H2347 | 0.987 | 0.889 | 0.98 | 0.987 |  | 0.315 | 0.299 | 0.329 | 0.25 | 0.649 | 0.644 | 0.572 | 0.717 | 0.437 | 0.445 | 0.484 | 0.417
NCI-H441 | 0.496 | 0.407 | 0.667 | 0.575 |  | 0.263 | 0.562 | 0.557 | 0.592 | 0.786 | 0.867 | 0.806 | 0.887 | 0.265 | 0.206 | 0.247 | 0.237
NCI-H1944 | 1.13 | 1.11 | 1.26 | 1.12 | 0.185 | 0.153 | 0.204 | 0.243 | 0.207 | 0.621 | 0.552 | 0.57 | 0.621 | 0.343 | 0.328 | 0.334 | 0.339
NCI-H661 | 0.581 | 0.621 | 0.548 | 0.723 | 0.759 | 0.572 | 0.504 | 0.523 | 0.368 | 0.815 | 0.726 | 0.854 | 0.755 | 0.409 | 0.357 | 0.436 | 0.387
201T | 1.02 | 1.04 | 1.06 | 1.04 | 0.566 | 0.382 | 0.596 | 0.62 | 0.599 | 0.979 | 0.991 | 1.03 | 0.983 | 0.347 | 0.352 | 0.359 | 0.358
NCI-H2087 | 1.04 | 0.956 | 0.958 | 0.858 |  | 0.609 | 0.874 | 0.988 | 0.854 | 0.905 | 0.336 | 0.788 | 0.764 | 0.228 | 0.212 | 0.245 | 0.23
BEN | 0.915 | 0.948 | 1.02 | 0.88 |  | 0.307 | 0.303 | 0.28 | 0.358 | 0.581 | 0.523 | 0.675 | 0.579 | 0.477 | 0.437 | 0.538 | 0.534
COR-L23 | 1 | 0.893 | 1.08 | 0.837 | 0.501 | 0.441 | 0.508 | 0.565 | 0.443 | 0.457 | 0.452 | 0.624 | 0.454 | 0.347 | 0.279 | 0.321 | 0.264
NCI-H1755 | 0.979 | 0.954 | 0.983 | 0.984 | 0.375 | 0.278 | 0.422 | 0.381 | 0.394 | 0.721 | 0.71 | 0.744 | 0.752 | 0.454 | 0.447 | 0.438 | 0.416
EMC-BAC-2 | 0.736 | 0.642 | 0.741 | 0.709 | 0.294 | 0.162 | 0.349 | 0.358 | 0.279 | 0.421 | 0.412 | 0.409 | 0.751 | 0.496 | 0.437 | 0.438 | 0.413
NCI-H1734 | 0.858 | 0.779 | 0.916 | 0.911 | 0.456 | 0.384 | 0.544 | 0.511 | 0.488 | 0.76 | 0.822 | 0.833 | 0.816 | 0.382 | 0.334 | 0.36 | 0.364
NCI-H727 | 0.399 | 0.277 | 0.269 | 0.258 |  |  | 0.317 | 0.338 | 0.359 | 1.14 | 1.16 | 1.09 | 1.14 | 0.607 | 0.678 | 0.627 | 0.733
A-427 | 1.12 | 1.05 | 1.14 | 1.06 |  | 0.664 | 0.825 | 0.745 | 0.692 | 0.851 | 0.878 | 0.874 | 0.895 | 0.55 | 0.513 | 0.509 | 0.562
